The record followed here is article PMC12921516 (ACS Bio & Med Chem Au, 2025).

One experiment deals with HepG2 cells. Kind of experiment: Western blotting, HepG2 normal model. It is filed as cell-based, human. Conditions: 24 h. The method, then: (§1) HepG2 cells were obtained directly from ATCC (HB-8065) and cultured in DMEM with low glucose, supplemented with fetal bovine serum, 100 U/mL penicillin G, and […] streptomycin. The media was freshly prepared and sterilized by filtration. Cells were maintained with a maximum of 10 passages before being discarded. For cell counting, the cells were washed twice with phosphate-buffered saline (PBS), trypsinized, and counted using a Neubauer chamber. For the insulin-resistant model, 75,000 cells per well were seeded in 6-well plates at 37 °C in 5% CO2 and cultured for 72 h. Subsequently, insulin (0.1 μM) was added to induce insulin resistance for 24 h. After this period, inhibitors were incubated for 24 h, followed by a final 30 min insulin stimulation (0.1 μM) before protein extraction. For the normal model, 75,000 cells per well were seeded in 6-well plates at 37 °C in 5% CO2 and cultured for 96 h. After that, the cells were incubated with the inhibitors for 24 h, followed by protein extraction.
(§2) Treated cells were washed twice with 1 mL of PBS, and proteins were extracted using 300 μL of a buffer solution containing 10% sodium deoxycholate in 10% TEAB, supplemented with a protease and phosphatase inhibitor cocktail. The extracts were heated at 80 °C for 5 min and dissociated by repeated passages through an insulin syringe. The cell extracts were centrifuged at 15,000 rpm for 15 min at 4 °C, and the supernatant was collected. Protein quantification was performed using the bicinchoninic acid assay, and aliquots were prepared for Western blotting. SDS-PAGE was conducted, and proteins were transferred onto a nitrocellulose membrane. The membrane was blocked with 10% skim milk in TBST for 1 h and incubated overnight with primary antibodies (1:400 dilution). Secondary antibodies conjugated to horseradish peroxidase were diluted 1:2,000, and the membranes were incubated for 1 h at room temperature. Blots were visualized using the ChemiDoc MP (Bio-Rad), and densitometric analysis was performed with ImageJ (U.S. National Institutes of Health). Statistical analyses were conducted using GraphPad Prism 8.0.
compounds at 24 h of treatment. β-actin was employed as loading control. b) Densitometric analysis of western blot images
employing ImageJ analysis software. Bar graphs represent the mean ± SEM of normalized values. The control levels were set to
1. Asterisks indicate statistical significance according to the Dunn test. p* < 0.05
(§3) (1 picture or pasted object on this page, not shown here)
For orientation: A western blot detects proteins with antibodies after separation by electrophoresis.

Experiment [1] has as its system insulin-resistant HepG2 cells. Kind of experiment: Western blotting, insulin-resistant HepG2 model. It is filed as cell-based, human. The conditions noted are these: 24 h. The method, then:
as §1, §2
resistance model in HepG2 cells . a) Western blotting representative analysis (n=3) of PTP1B, p -AKT, p-IRS1 and p-STAT3 levels
of HepG2 cells treated with the compounds at 24 h of treatment. β-actin was employed as loading control. b) Densitometric
analysis of western blot images employing ImageJ analysis software. Bar graphs represent the mean ± SEM of normalized values.
The control levels were set to 1. Asterisks indicate statistical significance according to the Dunn test. p* < 0.05.
as §3

Take `CC1(C)c2[nH]c3ccc(OC(F)F)cc3c2C[C@]2(C)[C@H]3C(=O)C=C4[C@@H]5C[C@@](C)(C(=O)O)CC[C@]5(C)CC[C@@]4(C)[C@]3(C)CC[C@@H]12` [compound 4b, (20β)-5′-(Difluoromethoxy)-11-oxo-1′H-oleana-2,12-dieno[3,2-b]indol-29-oic Acid]: the p-STAT3 levels result with HepG2 cells is on record as “only a minor increase”.

As for `CC1(C)c2[nH]c3ccc(S(N)(=O)=O)cc3c2C[C@]2(C)[C@H]3C(=O)C=C4[C@@H]5C[C@@](C)(C(=O)O)CC[C@]5(C)CC[C@@]4(C)[C@]3(C)CC[C@@H]12` [compound 4g, (20β)-5′-Sulfamoyl-11-oxo-1′H-oleana-2,12-dieno[3,2-b]indol-29-oic Acid], in the experiment on HepG2 cells, the p-IRS levels entry was “slight but not statistically significant increase” and the p-STAT3 levels entry is “slight but not statistically significant increase”.

`CC1(C)c2c(cnn2-c2ccc(S(N)(=O)=O)cc2)C[C@]2(C)[C@H]3C(=O)C=C4[C@@H]5C[C@@](C)(C(=O)O)CC[C@]5(C)CC[C@@]4(C)[C@]3(C)CC[C@@H]12` [compound 5g, (20β)-11-Oxo-2′-(4-sulfamoylphenyl)-2′H-oleana-2,12-dieno[3,2-c]pyrazol-29-oic Acid]: the p-IRS levels result in experiment [1] is “tendency to increase p-IRS levels”.
